For the compound `CCCCOCCOc1ccc(-c2ccc3c(c2)C=C(C(=O)Nc2ccc(SCc4nncn4CCC)c(C(F)(F)F)c2)CCN3CC(C)C)cc1` [Compound 42, 7-[4-(2-butoxyethoxy)phenyl]-1-isobutyl-N-[3-trifluoromethyl-4-[(4-propyl-4H-1,2,4-triazol-3-yl)methylthio]phenyl]-2,3-dihydro-1H-1-benzazepine-4-carboxamide], the melting point was 131 to 133 °C. The same measure for `CCCCOCCOc1ccc(-c2ccc3c(c2)C=C(C(=O)Nc2ccc([S+]([O-])Cc4nncn4CCCC)cc2)CCN3CC(C)C)cc1` (stereo not drawn) [Compound 143, 7-[4-(2-butoxyethoxy)phenyl]-N-[4-(4-n-butyl-4H-1,2,4-triazol-3-ylmethylsulfinyl)phenyl]-1-isobutyl-2,3-dihydro-1H-benzazepine-4-carboxamide]: 178 to 180 °C. In the case of `CCCCOCCOc1ccc(-c2ccc3c(c2)C=C(C(=O)Nc2ccc([C@H](O)c4cccc[n+]4[O-])cc2)CCN3Cc2cc(C)ns2)cc1` [Compound 92, 7-[4-(2-butoxyethoxy)phenyl]-1-(3-methyl-isothiazol-5-ylmethyl)-N-[4-[(S)-hydroxy(1-oxidopyridin-2-yl)methyl]phenyl]-2,3-dihydro-1H-1-benzazepine-4-carboxamide], the melting point lay within 93 to 96 °C. `CCCCOCCOc1ccc(-c2ccc3c(c2)C=C(C(=O)Nc2ccc([S+]([O-])Cc4nncn4C)cc2)CCN3CCC)cc1` (stereo not drawn) [Compound 133, 7-[4-(2-butoxyethoxy)phenyl]-N-[4-(4-methyl-4H-1,2,4-triazol-3-ylmethylsulfinyl)phenyl]-1-propyl-2,3-dihydro-1H-1-benzazepine-4-carboxamide] gave a melting point of 101 to 103 °C.

Turning to `CCCCOCCOc1ccc(-c2ccc3c(c2)C=C(C(=O)Nc2ccc(C(O)c4c(OCCC)ccc[n+]4[O-])cc2)CCN3C(=O)C(F)(F)F)cc1` (stereo not drawn) [Compound 112, 7-[4-(2-butoxyethoxy)phenyl]-N-[4-[hydroxy(1-oxido-3-propoxypyridin-2-yl)methyl]phenyl]-1-trifluoroacetyl-2,3-dihydro-1H-1-benzazepine-4-carboxamide], the melting point fell in the range of 144 to 146 °C. The same measure for `CCCCOCCOc1ccc(-c2ccc3c(c2)C=C(C(=O)Nc2ccc(CSc4nnc(C)o4)cc2)CCN3CC(C)C)cc1` [Compound 116, 7-[4-(2-butoxyethoxy)phenyl]-N-[4-(5-methyl-1,3,4-oxadiazol-2-ylthiomethyl)phenyl]-1-isobutyl-2,3-dihydro-1H-1-benzazepine-4-carboxamide]: 107 to 109 °C; for `CCCCOCCOc1ccc(-c2ccc3c(c2)C=C(C(=O)Nc2ccc(C/C(=N/O)c4nccn4CCC)cc2)CCN3CC(C)C)cc1` [Compound 453, 7-[4-(2-butoxyethoxy)phenyl]-N-[4-((2Z)-2-(hydroxyimino)-2-(1-propylimidazol-2-yl)ethyl)phenyl]-1-isobutyl-2,3-dihydro-1H-1-benzazepine-4-carboxamide]: 187.5 to 189.5 °C. The same measure for `CCCCOCCOc1ccc(-c2ccc3c(c2)C=C(C(=O)Nc2ccc([S+]([O-])Cc4nncn4C)cc2)CCN3CC(C)C)cc1` (stereo not drawn) [Compound 131, 7-[4-(2-butoxyethoxy)phenyl]-N-[4-(4-methyl-4H-1,2,4-triazol-3-ylmethylsulfinyl)phenyl]-1-isobutyl-2,3-dihydro-1H-1-benzazepine-4-carboxamide]: 103 to 105 °C; for `CCCCOCCOc1ccc(-c2ccc3c(c2)C=C(C(=O)Nc2ccc(C(O)c4cc(C)cc[n+]4[O-])c(C(F)(F)F)c2)CCN3CCC)cc1` (stereo not drawn) [Compound 17, 7-[4-(2-butoxyethoxy)phenyl]-N-[4-[hydroxy(4-methyl-1-oxidopyridin-2-yl)methyl]-3-trifluoromethylphenyl]-1-propyl-2,3-dihydro-1H-1-benzazepine-4-carboxamide]: 103 to 105 °C; for `CCCCOCCOc1ccc(-c2ccc3c(c2)C=C(C(=O)Nc2ccc(C(O)c4cccc[n+]4[O-])c(OCC(F)(F)F)c2)CCN3CC(C)C)cc1` (stereo not drawn) [Compound 23, 7-[4-(2-butoxyethoxy)phenyl]-1-isobutyl-N-[4-[hydroxy(1-oxidopyridin-2-yl)methyl]-3-(2,2,2-trifluoroethoxy)phenyl]-2,3-dihydro-1H-1-benzazepine-4-carboxamide]: 118 to 123 °C.

For the compound `CCCCOCCOc1ccc(-c2ccc3c(c2)C=C(C(=O)Nc2ccc([S+]([O-])c4cccc5nccn45)cc2)CCN3CC(C)C)cc1` (stereo not drawn) [Compound 169, 7-[4-(2-butoxyethoxy)phenyl]-1-isobutyl-N-[4-(imidazo[1,2-a]pyridin-5-ylsulfinyl)phenyl]-2,3-dihydro-1H-benzazepine-4-carboxamide], the melting point is 162 to 164 °C. In the case of `CCCCOCCOc1ccc(-c2ccc3c(c2)C=C(C(=O)Nc2ccc(Sc4cccc5nc(C)cn45)cc2)CCN3CC(C)C)cc1` [Compound 170, 7-[4-(2-butoxyethoxy)phenyl]-1-isobutyl-N-[4-(2-methylimidazo[1,2-a]pyridin-5-ylthio)phenyl]-2,3-dihydro-1H-benzazepine-4-carboxamide] it was 164 to 166 °C; in that of `CCCCOCCOc1ccc(-c2ccc3c(c2)C=C(C(=O)Nc2ccc([C@H](O)c4cccc[n+]4[O-])cc2)CCN3Cc2ccnn2C)cc1` [Compound 89, 7-[4-(2-butoxyethoxy)phenyl]-N-[4-[(S)-hydroxy(1-oxidopyridin-2-yl)methyl]phenyl]-1-(1-methylpyrazol-5-ylmethyl)-2,3-dihydro-1H-1-benzazepine-4-carboxamide], 109 to 111 °C. The same measure for `CCCCOCCOc1ccc(-c2ccc3c(c2)C=C(C(=O)Nc2ccc(C(O)c4cc(C)cc[n+]4[O-])c(C(F)(F)F)c2)CCN3)cc1` (stereo not drawn) [Compound 16, 7-[4-(2-butoxyethoxy)phenyl]-N-[4-[hydroxy(4-methyl-1-oxidopyridin-2-yl)methyl]-3-trifluoromethylphenyl]-2,3-dihydro-1H-1-benzazepine-4-carboxamide]: 124 to 128 °C.

With `CCCCOCCOc1ccc(-c2ccc3c(c2)C=C(C(=O)Nc2ccc(C(O)c4ccc(Cl)cn4)cc2)CCN3C(=O)C(F)(F)F)cc1` (stereo not drawn) [Compound 107, 7-[4-(2-butoxyethoxy)phenyl]-N-[4-[hydroxy(5-chloropyridin-2-yl)methyl]phenyl]-1-trifluoroacetyl-2,3-dihydro-1H-1-benzazepine-4-carboxamide], the melting point lay in the range of 144 to 146 °C. Consider `CCCCOCCOc1ccc(-c2ccc3c(c2)C=C(C(=O)Nc2ccc4c(c2)nc([S+]([O-])Cc2cncn2CCC)n4C)CCN3CC(C)C)cc1` (stereo not drawn) [Compound 445, 7-[4-(2-butoxyethoxy)phenyl]-1-isobutyl-N-[1-methyl-2-(((1-propylimidazol-5-yl)methyl)sulfinyl)benzimidazol-5-yl]-2,3-dihydro-1H-1-benzazepine-4-carboxamide], for which the melting point lay within 149.5 to 151 °C. In the case of `CCCCOCCOc1ccc(-c2ccc3c(c2)C=C(C(=O)Nc2ccc(SCc4ncon4)cc2)CCN3CC(C)C)cc1` [Compound 128, 7-[4-(2-butoxyethoxy)phenyl]-1-isobutyl-N-[4-(1,2,4-oxadiazol-3-ylmethylthio)phenyl]-2,3-dihydro-1H-benzazepine-4-carboxamide] it was 112 to 115 °C. Take `CCCCOCCOc1ccc(-c2ccc3c(c2)C=C(C(=O)Nc2ccc(C(O)c4c(OCCC)ccc[n+]4[O-])cc2)CCN3)cc1` (stereo not drawn) [Compound 113, 7-[4-(2-butoxyethoxy)phenyl]-N-[4-[hydroxy(1-oxido-3-propoxypyridine-2-yl)methyl]phenyl]-2,3-dihydro-1H-1-benzazepine-4-carboxamide]: the melting point was in the range of 148 to 149 °C. The same measure for `CCCCOCCOc1ccc(-c2ccc3c(c2)C=C(C(=O)Nc2ccc(C[S+]([O-])c4nncn4C)cc2)CCN3CC(C)C)cc1` (stereo not drawn) [Compound 118, 7-[4-(2-butoxyethoxy)phenyl]-N-[4-(4-methyl-4H-1,2,4-triazol-3-ylsulfinylmethyl)phenyl]-1-isobutyl-2,3-dihydro-1H-1-benzazepine-4-carboxamide]: 87 to 89 °C. In the case of `CCCCOCCOc1ccc(-c2ccc3c(c2)C=C(C(=O)Nc2ccc(C(O)c4c(C)ccc[n+]4[O-])cc2)CCN3C(=O)C(F)(F)F)cc1` (stereo not drawn) [Compound 100, 7-[4-(2-butoxyethoxy)phenyl]-N-[4-[hydroxy(3-methyl-1-oxidopyridin-2-yl)methyl]phenyl]-1-trifluoroacetyl-2,3-dihydro-1H-1-benzazepine-4-carboxamide] it was 109 to 112 °C.

The compound `CCCCOCCOc1ccc(-c2ccc3c(c2)C=C(C(=O)Nc2ccc([C@H](O)c4ccccn4)cc2)CCN3S(C)(=O)=O)cc1` [Compound 93, 7-[4-(2-butoxyethoxy)phenyl]-N-[4-[(S)-hydroxy(2-pyridyl)methyl]phenyl]-1-methanesulfonyl-2,3-dihydro-1H-1-benzazepine-4-carboxamide] gave a melting point of 158 to 160 °C. On to `CCCCOCCOc1ccc(-c2ccc3c(c2)C=C(C(=O)Nc2ccc(C(O)c4cc(C)cc[n+]4[O-])c(OCC)c2)CCN3CC(C)C)cc1` (stereo not drawn) [Compound 12, 7-[4-(2-butoxyethoxy)phenyl]-N-[3-ethoxy-4-[hydroxy(4-methyl-1-oxidopyridin-2-yl)methyl]phenyl]-1-isobutyl-2,3-dihydro-1H-1-benzazepine-4-carboxamide], for which the melting point lay in the range of 108 to 110 °C. In the case of `CCCCOCCOc1ccc(-c2ccc3c(c2)C=C(C(=O)Nc2ccc([C@@H](O)c4ccccn4)cc2)CCN3C=O)cc1` [Compound 76, 7-[4-(2-butoxyethoxy)phenyl]-1-formyl-N-[4-[(R)-hydroxy(2-pyridyl)methyl]phenyl]-2,3-dihydro-1H-1-benzazepine-4-carboxamide] it was 110 to 112 °C; in that of `CCCCOCCOc1ccc(-c2ccc3c(c2)C=C(C(=O)Nc2ccc(SCCn4cnnc4)cc2)CCN3CCC)cc1` [Compound 156, 7-[4-(2-butoxyethoxy)phenyl]-N-[4-(4H-1,2,4-triazol-4-ylethylthio)phenyl]-1-propyl-2,3-dihydro-1H-benzazepine-4-carboxamide], 114 to 115 °C.

The values are drawn from patent US7262185B2, “Benzazepine derivative, process for producing the same, and use” (Takeda Chemical Industries Ltd., priority 2001, dated 2007).
